From US6685951B2, “Administration of dihydroergotamine as a sublingual spray or aerosol for the treatment of migraine” (R. T. Alamo Ventures I, Inc., priority 2001, dated 2004)

Columns and labels:
[1] = Mortality/moribundity checks and cageside observation after sublingual DHE; assay type: in vivo, Cynomogolius monkey; details: sublingual 0.5 mL of 1.0 mg/mL; throughout the study
Description: (§1) Prior to dose administration, the animal was restrained and anesthetized with an appropriate amount of ketamine. Using a calibrated pipette, 0.5 mL of dosing solution was placed under the animal's tongue immediately after swabbing excess saliva with a gauze pad (the gauze pad will be discarded). The animal's head was restrained for approximately 5 minutes in such a manner to minimize any loss of the dose solution through the animal's mouth or down the animal's throat.
Mortality and moribundity checks were done twice daily (a.m. and p.m.). Cageside observation for general health and appearance was done once daily.

[2] = test system: migraine symptoms; experiment: Example 2: sublingual DHE vs placebo in patients suffering from migraines; assay type: in vivo; details: 1 mg sublingual DHE
Description: This experiment utilizes two test groups of patients. All of the patients are suffering from migraines. One group receives a 1 mg dose of sublingual DHE, the other group receives a placebo. The DHE sublingual formulation is placed by the patients or medical professional under the tongue. The DHE sublingual formulation is allowed to dissolve fully. If the symptoms are not relieved within 20 to 40 minutes, a second dose is administered. Results are compared between the test group and the placebo group. […] The difference in amelioration of migraine symptoms are statistically significant.

[3] = test system: migraine symptoms; experiment: Example 4: sublingual DHE vs nasal administration of DHE in migraine patients; assay type: in vivo; details: 2 mg sublingual vs 2 mg nasally administered
Description: This example compares the effect on migraine of nasal administration of DHE vs. the sublingual administration of the present invention.
This experiment utilizes three test groups of patients. All of the patients are suffering from migraines. One group receives a 2 mg dose of sublingual DHE and placebo intranasal spray, the second group receives a 2 mg nasally administered dose of a pharmaceutical formulation comprising DHE and a placebo sublingual tablet, the third group receives a placebo sublingual tablet and a placebo intranasal spray. Results are compared between the active sublingual test group and the active nasal test group.

[4] = test system: migraine symptoms; experiment: Example 3: sublingual DHE tablet vs subcutaneous injection of DHE in migraine patients; assay type: in vivo; details: 1 mg sublingual tablet vs 1 mg subcutaneous injection
Description: This example compares the effect on migraine of subcutaneous injection vs. the sublingual administration of the present invention.
This experiment utilizes three test groups of patients. All of the patients are suffering from migraines. One group receives a 1 mg dose of sublingual DHE tablet and a placebo subcutaneous injection, the second group receives a 1 mg subcutaneous injection of a pharmaceutical formulation comprising DHE and a placebo sublingual tablet, and the third group receives a placebo subcutaneous injection and a placebo sublingual tablet. Results are compared between the active sublingual test group and the active subcutaneous test group.

[5] = Example 5: plasma uptake of DHE, sublingual tablet vs subcutaneous administration; assay type: in vivo, patient; details: plasma monitored 24 hours
Description: This example evaluates the uptake in sublingual vs. subcutaneous administration of DHE.
In this experiment one patient suffering from migraine pain is administered a migraine ameliorating dose of DHE as a sublingual tablet formulated as described in Example 1. The plasma concentration of DHE is monitored for a time of 24 hours after the administration. […] The rate and amount of DHE in the plasma is compared to that obtained by subcutaneous administration.

[6] = Plasma DHE after sublingual administration of DHE 45 dosing solution in a monkey; assay type: in vivo, Cynomogolius monkey
Description: In this example the intrinsic permeability of DHE was shown after it was sublingually administered DHE in a Cynomogolius monkey.
The test DHE was obtained from as DHE 45® Injection, USP (manufactured by Novartis). Specific information follows.
as §1
Blood (approximately 1 mL) was collected from each animal prior to dosing (predose) and at 0.1, 0.2, 0.3, 0.4, 0.5, 1, 2, 4, 8, and 12 hours postdose. Blood was collected via a femoral vein into sodium-heparinized tubes.
Blood was maintained on wet ice, in chilled Kryoracks, or at approximately 5° C. prior to centrifugation to obtain plasma. Centrifugation was begin within 30 minutes of collection. The blood samples were centrifuged at approximately 5° C. for approximately 10 minutes at approximately 4,000 rpm. Plasma was harvested and stored on dry ice or at approximately −70° C. prior to shipment.
The plasma was assayed for DHE using standard techniques.

[7] = Example 6: two-way crossover, DHE tablet under the tongue vs orally with water; assay type: in vivo, healthy normal volunteers; details: tablet under the tongue vs orally with about 240 ml water; blood over 24 hour
Description: Each volunteer is administered DHE sublingual tablet manufactured as defined in this patent. In one treatment the tablet is administered under the tongue and in the crossover treatment the subject is administered the tablet orally with about 240 ml of water. Blood samples are taken serially over a 24 hour duration post administration and assayed for unchanged DHE and the principle 8-hydroxy DHE metabolite.

[8] = oral forms of DHE; cited from earlier work
[9] = test system: migraine; details: in vivo; cited from earlier work

Compound	observations for general health and appearance, mortality and moribundity [1]	amelioration of migraine symptoms compared to placebo control group [2]	amelioration of migraine symptoms, sublingual vs nasal group [3]	amelioration of migraine symptoms, sublingual vs subcutaneous group [4]	time to maximum plasma concentration of DHE [5] [min]	half-life ([6]; cynomolgus, monkey, in vivo) [h]	Tmax ([6]; cynomolgus, monkey, in vivo, 0.5 mg, plasma, sublingual 0.5 mL of 1.0 mg/mL, read-out: Tmax (time point of maximum concentration) (converted)) [min]	detection of DHE in the blood plasma after sublingual administration ([6]; sublingual)	levels of active DHE, sublingual higher than oral [7]	active unchanged drug that reaches the blood stream [8]	efficacy in the treatment of migraine [9]
CN1C[C@H](C(=O)N[C@]2(C)O[C@@]3(O)[C@@H]4CCCN4C(=O)[C@H](Cc4ccccc4)N3C2=O)C[C@@H]2c3cccc4[nH]cc(c34)C[C@H]21 [DHE, Dihydroergotamine]	No unusual observations	greater amelioration of migraine symptoms	equivalent amelioration of migraine symptoms	equivalent amelioration of migraine symptoms	30 to 60	2.2	5	rapid detection of DHE in the blood plasma	at least 200%	2-10%	
CN(C)CCc1c[nH]c2ccc(Cn3cncn3)cc12 [rizatriptan]											60-70%
